Laboratory results taken from paper PMC12635268, “Novel antimicrobial peptides and peptide-microbiome crosstalk in Appalachian salamander skin” (NPJ Biofilms and Microbiomes, 2025).
Values after ≈ are worked out from the molar mass of the structure shown. Like-named read-outs stand apart in the source and are kept apart here.

Key:
[1] = set-up: method as in Biomatik (vendor); conditions: 1.0 mg peptide in 1.0 ml solvent; peptides synthesized by Biomatik; ref Biomatik (vendor); cited from earlier work
A. baumannii ATCC 17978 = test: microbe, parasite or virus in culture; conditions: for Bacterial MIC: A. baumannii 17978; for MIC: Acinetobacter baumannii
In short: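 Broth microdilution in cation-adjusted Mueller-Hinton broth, final inoculum 1 × 10⁵ CFU/mL, peptides 0.25 to 128 μg/mL in 0.02% TFA + 0.04% BSA. Duplicates incubated 20 h at 37 °C without agitation. MIC read visually per CLSI with image-analysis support.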

K. pneumoniae 4640 = test: microbe, parasite or virus in culture

| SMILES | Suggest solvent (solubility) [1] | Bacterial MIC (A. baumannii ATCC 17978; Historical run 15NOV23) | Bacterial MIC (A. baumannii ATCC 17978; Historical run 19APRIL23) | Bacterial MIC (A. baumannii ATCC 17978; Historical run 22NOV23) | Bacterial MIC (A. baumannii ATCC 17978; Week 2 (12/14/2023)) | MIC (A. baumannii ATCC 17978; ATCC17978, 20 h) [µg/mL] | MIC (A. baumannii ATCC 17978; ATCC17978, read-out: Bacterial MIC) [µg/mL] | MIC (K. pneumoniae 4640; Klebsiella pneumoniae, 4640, 20 h, K. pneumoniae 4640, CAMHB, 1 × 10⁵ CFU/mL, 0.25 to 128 μg/mL, 37 °C 20 h, duplicate, read visually (CLSI)) [µg/mL] | MIC (K. pneumoniae 4640; Klebsiella pneumoniae, 4640, read-out: Bacterial MIC, K. pneumoniae 4640, Historical run 15NOV23) [µg/mL] | MIC (K. pneumoniae 4640; Klebsiella pneumoniae, 4640, read-out: Bacterial MIC, K. pneumoniae 4640, Historical run 19APRIL23) [µg/mL] | MIC (K. pneumoniae 4640; Klebsiella pneumoniae, 4640, read-out: Bacterial MIC, K. pneumoniae 4640, Historical run 22NOV23) [µg/mL] | MIC (K. pneumoniae 4640; Klebsiella pneumoniae, 4640, read-out: Bacterial MIC, K. pneumoniae 4640, Week 1 (12/6/2023)) [µg/mL] | MIC (K. pneumoniae 4640; Klebsiella pneumoniae, 4640, read-out: Bacterial MIC, K. pneumoniae 4640, Week 2 (12/14/2023)) [µg/mL] |
| --- | --- | --- | --- | --- | --- | --- | --- | --- | --- | --- | --- | --- | --- |
| CC[C@H](C)[C@H](NC(=O)[C@H](CCCCN)NC(=O)[C@H](CCC(=O)O)NC(=O)[C@H](CCCCN)NC(=O)[C@H](CO)NC(=O)[C@H](CCCCN)NC(=O)[C@H](CCCNC(=N)N)NC(=O)[C@H](Cc1ccccc1)NC(=O)[C@H](Cc1ccccc1)NC(=O)[C@H](CC(=O)O)NC(=O)CNC(=O)[C@H](CC(C)C)NC(=O)[C@@H](N)CC(C)C)C(=O)NCC(=O)N[C@@H](CCCCN)C(=O)N[C@@H](CCC(=O)O)C(=O)N[C@@H](Cc1ccccc1)C(=O)N[C@@H](CCCCN)C(=O)N[C@@H](CCCNC(=N)N)C(=O)N[C@H](C(=O)N[C@H](C(=O)N[C@@H](CCC(N)=O)C(=O)N[C@@H](CCCNC(=N)N)C(=O)N[C@H](C(=O)N[C@@H](CCCCN)C(=O)N[C@@H](CC(=O)O)C(=O)N[C@@H](Cc1ccccc1)C(=O)N[C@@H](CC(C)C)C(=O)N[C@@H](CCCNC(=N)N)C(=O)N[C@@H](CC(N)=O)C(=O)N[C@@H](CC(C)C)C(=O)N[C@H](C(=O)N1CCC[C@H]1C(=O)N[C@@H](CCCNC(=N)N)C(=O)N[C@H](C(=O)N[C@@H](CCC(=O)O)C(=O)N[C@@H](CO)C(=O)O)[C@@H](C)O)C(C)C)[C@@H](C)CC)C(C)C)[C@@H](C)CC [LL-37, reference compound] | 1.0mg peptide soluble in 1.0ml (H2O:Acetonitrile=3:1) | – | – | – | – | – | – | – | – | – | – | – | – |
| C[C@H]1COc2c(N3CCN(C)CC3)c(F)cc3c(=O)c(C(=O)O)cn1c23 [Levofloxacin, reference compound] | – | <= 0.250 µg/mL | <= 0.250 µg/mL | <= 0.250 µg/mL | <= 0.250 µg/mL | 0.25 (≈ 0.692 µM) | ≤ 0.25 | 32 (≈ 88.6 µM) | 32 to 64 (≈ 88.6 to 177 µM) | 64 (≈ 177 µM) | 32 (≈ 88.6 µM) | 32 (≈ 88.6 µM) | 32 (≈ 88.6 µM) |
